Values of other authors in patent US20210361620A1 (Biosential, Inc., priority 2018, published 2021).

How the values were obtained:
humans = conditions: for potential side effects of supplementation: tryptophan: dose not given, melatonin: 1 mg to 5 mg, uncommon
[1] = system: subjects with mild insomnia or longer-than-average sleep latency; conditions: for effect on sleep (hypnotic effect): ingestion of a sufficient quantity
serum albumin = serum albumin (Homo sapiens, UniProt P02768); conditions: after ingestion and absorption
serum albumin, sequence (P02768 25-609): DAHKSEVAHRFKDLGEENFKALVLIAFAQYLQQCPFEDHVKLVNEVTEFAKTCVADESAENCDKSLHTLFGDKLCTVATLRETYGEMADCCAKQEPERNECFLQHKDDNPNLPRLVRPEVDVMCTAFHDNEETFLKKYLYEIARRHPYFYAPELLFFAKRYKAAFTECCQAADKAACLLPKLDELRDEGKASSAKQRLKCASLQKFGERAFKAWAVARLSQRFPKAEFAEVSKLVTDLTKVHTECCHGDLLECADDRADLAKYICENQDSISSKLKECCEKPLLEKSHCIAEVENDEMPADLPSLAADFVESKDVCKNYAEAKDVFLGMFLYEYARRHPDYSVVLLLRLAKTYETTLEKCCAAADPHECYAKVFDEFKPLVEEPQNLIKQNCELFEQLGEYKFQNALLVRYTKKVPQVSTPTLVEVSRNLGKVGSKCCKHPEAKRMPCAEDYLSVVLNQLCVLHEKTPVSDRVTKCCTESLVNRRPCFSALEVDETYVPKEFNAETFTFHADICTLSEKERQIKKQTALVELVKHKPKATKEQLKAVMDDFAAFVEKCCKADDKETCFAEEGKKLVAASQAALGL

| Compound | side effects of supplementation during the day (humans; daytime use) | potential side effects of supplementation (humans) | effect on sleep (hypnotic effect) [1] | effect on glucose metabolism (rats) | fraction bound to serum albumin in the circulation (serum albumin) | fraction circulating as free tryptophan (serum albumin) [%] | effect on sleep architecture at very high dose ([1]; doses above 12,000 mg) |
| --- | --- | --- | --- | --- | --- | --- | --- |
| COc1ccc2[nH]cc(CCNC(C)=O)c2c1 [melatonin] | sleepiness and hypothermia | drowsiness, headache, dizziness and nausea | reduce sleep latency, increase sleep duration and efficiency, and regulate the sleep-wake cycle | antihyperglycemic effect | – | – | – |
| N[C@@H](Cc1c[nH]c2ccccc12)C(=O)O [tryptophan] | – | drowsiness and minimal weight loss | consistently reduces sleep latency | – | approximately 80% | 20 | disrupt sleep architecture |
